Source: patent publication US11377444B2, “Pyridopyrimidine compounds acting as mTORC 1/2 dual inhibitors” (MEDSHINE DISCOVERY INC., priority 2017, dated 2022)
pKd: −log10 of the molar value.

Target: T1, mTOR kinase (mTORC1 and mTORC2 kinase complex) (Homo sapiens, UniProt P42345)
T1 construct: purchased DiscoverX; host or cells: HEK-293
Experiment: In vitro evaluation of mTOR kinase inhibitory activity (DiscoverX ligand-bead competition binding, qPCR readout)
How it was run: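 Tagged mTOR expressed in HEK-293 cells was combined with streptavidin beads carrying biotinylated ligand and DMSO-dissolved compound, shaken 1 h at room temperature. Beads were washed, then eluted 30 min with […] non-biotin affinity ligand. Kinase in eluate quantified by qPCR.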

Structure (SMILES)	pKd
CNC(=O)c1cccc(-c2ccc3c(N4CCOC[C@@H]4C)nc(N4CCOC5(CCC5)C4)nc3n2)c1 [Embodiment 23]	9.42
C[C@H]1COCCN1c1nc(N2CCOC3(CC3)C2)nc2nc(-c3cccc(C(N)=O)c3)ccc12 [Embodiment 51]	9.52
